Drawing on patent US20250154173A1 (Merck Sharp & Dohme LLC, priority 2023, published 2025), this text covers EC50 for 26 compounds.

The assay addresses T1, GST-RIPK1 (recombinant GST-RIPK1 kinase domain (residues 1-327)) (Homo sapiens, UniProt Q13546).
T1 construct: recombinant GST-RIPK1 kinase domain (residues 1-327) enzyme produced from baculovirus-transfected Sf21 cells; host or cells: baculovirus-transfected Sf21 insect cells
T1 sequence (Q13546 1-327): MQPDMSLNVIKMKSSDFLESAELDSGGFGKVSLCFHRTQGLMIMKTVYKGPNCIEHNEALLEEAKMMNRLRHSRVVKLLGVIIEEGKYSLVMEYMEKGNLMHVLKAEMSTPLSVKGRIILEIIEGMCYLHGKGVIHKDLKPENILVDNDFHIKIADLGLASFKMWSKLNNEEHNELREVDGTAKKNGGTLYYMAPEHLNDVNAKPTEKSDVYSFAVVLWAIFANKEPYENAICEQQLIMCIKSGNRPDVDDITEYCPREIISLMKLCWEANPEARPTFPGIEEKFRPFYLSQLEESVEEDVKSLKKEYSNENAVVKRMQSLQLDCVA
Briefly: RIPK1-ADP-Glo Enzymatic Assay. The conditions noted are these: ten-point titration, top compound concentration of 100000 nM; 25 nM GST-RIPK1, 300 μM ATP, 3 μM dephosphorylated-MBP; 30 min pre-incubation, 150 min reaction. In kind it is biochemical. The procedure, abridged: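 GST-RIPK1 kinase domain (residues 1-327, Sf21-expressed), 25 nM, preincubated 30 min with compound, then reacted 150 min with 300 μM ATP and 3 μM dephosphorylated MBP in pH 7.3 Hepes buffer, 1% DMSO. ADP measured by ADP-Glo luminescence; EC50 from ten-point titration (top 100000 nM), four-parameter fit.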

As a reminder, the EC50 is the concentration at which the effect is half-maximal.

In the case of `O=C1N2C(CC[C@H]2c2cnccn2)OC12CC(OCc1ccc3nc(C(F)(F)F)sc3c1)C2` (some centres unmarked) [Example 18.48], the EC50 came out at 31 nM.

For `O=C1N2C(CC[C@H]2c2cnccn2)OC12CC(OCc1csc3ncccc13)C2` (stereo partly drawn) [Example 18.18, (5′S)-5′-(pyrazin-2-yl)-3-[(thieno[2,3-b]pyridin-3-yl)methoxy]tetrahydro-3′H-spiro[cyclobutane-1,2′-pyrrolo[2,1-b][1,3]oxazol]-3′-one], the EC50 turned out to be 18 nM.

`O=C1N2[C@@H](CC[C@H]2c2cnccn2)OC12CC(Oc1ccc(F)c(F)c1)C2` (stereo partly drawn) [Example 19.22, (5′S,7a′R)-3-(3,4-difluorophenoxy)-5′-(pyrazin-2-yl)tetrahydro-3′H-spiro[cyclobutane-1,2′-pyrrolo[2,1-b][1,3]oxazol]-3′-one]: the concentration giving a half-maximal response (EC50) was found to be 12 nM.

Regarding `N#Cc1cc(OC2CC3(C2)O[C@@H]2CC[C@@H](c4cccc(F)c4F)N2C3=O)ncn1` (single isomer, unassigned) [Example 9.40, 6-{[(5′S,7a′R)-5′-(2,3-difluorophenyl)-3′-oxotetrahydro-3′H-spiro[cyclobutane-1,2′-pyrrolo[2,1-b][1,3]oxazol]-3-yl]oxy}pyrimidine-4-carbonitrile], the EC50 is 474 nM. Next, `O=C1N2C(CC[C@H]2c2cnccn2)OC12CC(OCc1ccc3nccn3c1)C2` (stereo partly drawn) [Example 18.69, (5′S)-3-[(imidazo[1,2-a]pyridin-6-yl)methoxy]-5′-(pyrazin-2-yl)tetrahydro-3′H-spiro[cyclobutane-1,2′-pyrrolo[2,1-b][1,3]oxazol]-3′-one]: 109 nM. Next, `N#CCc1ncc(COC2CC3(C2)OC2CC[C@@H](c4cnccn4)N2C3=O)cc1Cl` (stereo partly drawn) [Example 18.98, [3-chloro-5-({[(5′S)-3′-oxo-5′-(pyrazin-2-yl)tetrahydro-3′H-spiro[cyclobutane-1,2′-pyrrolo[2,1-b][1,3]oxazol]-3-yl]oxy}methyl)pyridin-2-yl]acetonitrile]: 198 nM. `O=C1N2C(CC[C@H]2c2cnccn2)OC12CC(OCc1ccc(-c3ccon3)cc1)C2` (stereo partly drawn) [Example 18.80, (5′S)-3-{[4-(1,2-oxazol-3-yl)phenyl]methoxy}-5′-(pyrazin-2-yl)tetrahydro-3′H-spiro[cyclobutane-1,2′-pyrrolo[2,1-b][1,3]oxazol]-3′-one]: the EC50 stood at 45 nM.

Regarding `O=C1N2C(CC[C@H]2c2cnccn2)OC12CC(OCc1ccccc1-n1cccn1)C2` (stereo partly drawn) [Example 18.53, (5′S)-5′-(pyrazin-2-yl)-3-{[2-(1H-pyrazol-1-yl)phenyl]methoxy}tetrahydro-3′H-spiro[cyclobutane-1,2′-pyrrolo[2,1-b][1,3]oxazol]-3′-one], the 50% effective concentration (EC50) was found to be 117 nM. Regarding `O=C(O[C@H]1C[C@@]2(C1)O[C@@H]1CC[C@@H](c3cc(F)cc(F)c3)N1C2=O)c1ccccn1` [Example 13, (1r,3R,5′S,7a′R)-5′-(3,5-difluorophenyl)-3′-oxotetrahydro-3′H-spiro[cyclobutane-1,2′-pyrrolo[2,1-b]oxazol]-3-yl picolinate], the EC50 came to 165 nM. Then `O=C1N2[C@@H](CC[C@H]2c2cc(F)cc(F)c2)O[C@]12C[C@H](Oc1cc(-c3cnn(C(F)F)c3)ncn1)C2` [Example 9.54, (5′S,7a′R)-3-((6-(1-(difluoromethyl)-1H-pyrazol-4-yl)pyrimidin-4-yl)oxy)-5′-(3,5-difluorophenyl)tetrahydro-3′H-spiro[cyclobutane-1,2′-pyrrolo[2,1-b]oxazol]-3′-one], with 24 nM. Then `O=C1N2[C@@H](CC[C@H]2c2cc(F)cc(F)c2)OC12CC(Oc1cc(-n3cccn3)ncn1)C2` (stereo partly drawn) [Example 9.8, (5′S,7a′R)-5′-(3,5-difluorophenyl)-3-{[6-(1H-pyrazol-1-yl)pyrimidin-4-yl]oxy}tetrahydro-3′H-spiro[cyclobutane-1,2′-pyrrolo[2,1-b][1,3]oxazol]-3′-one], with 24 nM; and `CS(=O)(=O)c1ccc(COC2CC3(C2)OC2CC[C@@H](c4cnccn4)N2C3=O)cc1` (stereo partly drawn) [Example 18.67, (5′S)-3-{[4-(methylsulfonyl)phenyl]methoxy}-5′-(pyrazin-2-yl)tetrahydro-3′H-spiro[cyclobutane-1,2′-pyrrolo[2,1-b][1,3]oxazol]-3′-one], with 88 nM. Then `N#Cc1ccc(F)c(OC2CC3(C2)O[C@@H]2CC[C@@H](c4ccccc4)N2C3=O)c1` (stereo partly drawn) [Example 8.3, 4-fluoro-3-{[(5′S,7a′R)-3′-oxo-5′-phenyltetrahydro-3′H-spiro[cyclobutane-1,2′-pyrrolo[2,1-b][1,3]oxazol]-3-yl]oxy}benzonitrile], with 20 nM; and `Cc1cc(OC2CC3(C2)O[C@@H]2CC[C@@H](c4ccccc4)N2C3=O)ccc1F` (stereo partly drawn) [Example 8.13, (5′S,7a′R)-3-(4-fluoro-3-methylphenoxy)-5′-phenyltetrahydro-3′H-spiro[cyclobutane-1,2′-pyrrolo[2,1-b][1,3]oxazol]-3′-one], with 62 nM. Regarding `O=C1N2[C@@H](CC[C@H]2c2cnccn2)O[C@]12C[C@H](Oc1ncnn3cccc13)C2` [Example 9.46, (1r,3R,5′S,7a′R)-5′-(pyrazin-2-yl)-3-(pyrrolo[2,1-f][1,2,4]triazin-4-yloxy)tetrahydro-3′H-spiro[cyclobutane-1,2′-pyrrolo[2,1-b]oxazol]-3′-one], the EC50 was 15 nM.

As for `N#Cc1cncc(O[C@H]2C[C@@]3(C2)O[C@@H]2CC[C@@H](c4ccccc4)N2C3=O)n1` [Example 9.16, 6-{[(1r,3R,5′S,7a′R)-3′-oxo-5′-phenyltetrahydro-3′H-spiro[cyclobutane-1,2′-pyrrolo[2,1-b][1,3]oxazol]-3-yl]oxy}pyrazine-2-carbonitrile], the concentration giving a half-maximal response (EC50) turned out to be 78 nM. With `Cc1nnc(-c2ccc(COC3CC4(C3)O[C@@H]3CC[C@@H](c5cnccn5)N3C4=O)cc2)o1` (stereo partly drawn) [Example 22.9, (5′S,7a′R)-3-{[4-(5-methyl-1,3,4-oxadiazol-2-yl)phenyl]methoxy}-5′-(pyrazin-2-yl)tetrahydro-3′H-spiro[cyclobutane-1,2′-pyrrolo[2,1-b][1,3]oxazol]-3′-one], the EC50 turned out to be 37 nM. As for `N#Cc1ccc(COC2CC3(C2)OC2CC[C@@H](c4cnccn4)N2C3=O)c2cccnc12` (stereo partly drawn) [Example 18.14, 5-({[(5′S)-3′-oxo-5′-(pyrazin-2-yl)tetrahydro-3′H-spiro[cyclobutane-1,2′-pyrrolo[2,1-b][1,3]oxazol]-3-yl]oxy}methyl)quinoline-8-carbonitrile], the EC50 was 16 nM. Take `O=C1N2[C@@H](CC[C@H]2c2ccccc2)OC12CC(Oc1ccc3sncc3c1)C2` (stereo partly drawn) [Example 8.14, (5′S,7a′R)-3-[(1,2-benzothiazol-5-yl)oxy]-5′-phenyltetrahydro-3′H-spiro[cyclobutane-1,2′-pyrrolo[2,1-b][1,3]oxazol]-3′-one]: the EC50 was determined as 83 nM. Then `O=C1N2[C@@H](CC[C@H]2c2cnccn2)OC12CC(Oc1cncc(Cl)c1)C2` (stereo partly drawn) [Example 19.18, (5′S,7a′R)-3-[(5-chloropyridin-3-yl)oxy]-5′-(pyrazin-2-yl)tetrahydro-3′H-spiro[cyclobutane-1,2′-pyrrolo[2,1-b][1,3]oxazol]-3′-one], with 23 nM.

With `Cc1cccnc1CO[C@H]1C[C@]2(C1)O[C@@H]1CC[C@@H](c3cnccn3)N1C2=O` [Example 20.1, (5′S,7a′R)-3-((3-methylpyridin-2-yl)methoxy)-5′-(pyrazin-2-yl)tetrahydro-3′H-spiro[cyclobutane-1,2′-pyrrolo[2,1-b]oxazol]-3′-one], the EC50 was found to be 664 nM. Then `O=C1N2[C@@H](CC[C@H]2c2cnccn2)OC12CC(Oc1cccnc1)C2` (stereo partly drawn) [Example 19.21, (5′S,7a′R)-5′-(pyrazin-2-yl)-3-[(pyridin-3-yl)oxy]tetrahydro-3′H-spiro[cyclobutane-1,2′-pyrrolo[2,1-b][1,3]oxazol]-3′-one], with 27 nM; and `Cc1cc2c(O[C@H]3C[C@@]4(C3)O[C@@H]3CC[C@@H](c5cc(F)cc(F)c5)N3C4=O)ncnc2o1` [Example 9.32, (1r,3R,5′S,7a′R)-5′-(3,5-difluorophenyl)-3-[(6-methylfuro[2,3-d]pyrimidin-4-yl)oxy]tetrahydro-3′H-spiro[cyclobutane-1,2′-pyrrolo[2,1-b][1,3]oxazol]-3′-one], with 8 nM; and `N#Cc1ccc(O[C@H]2C[C@@]3(C2)O[C@@H]2CC[C@@H](c4ccccc4)N2C3=O)cc1F` [Example 8.1, 2-fluoro-4-(((1r,3R,5′S,7a′R)-3′-oxo-5′-phenyltetrahydro-3′H-spiro[cyclobutane-1,2′-pyrrolo[2,1-b]oxazol]-3-yl)oxy)benzonitrile], with 31 nM. Then `O=C1N2[C@@H](CC[C@H]2c2cnccn2)OC12CC(Oc1ccc(F)c(F)c1)C2` (stereo partly drawn) [Example 19.5, (5′S,7a′R)-3-(3,4-difluorophenoxy)-5′-(pyrazin-2-yl)tetrahydro-3′H-spiro[cyclobutane-1,2′-pyrrolo[2,1-b][1,3]oxazol]-3′-one], with 11 nM; and `Cn1nccc1-c1cc(OC2CC3(C2)O[C@@H]2CC[C@@H](c4cnccn4)N2C3=O)ncn1` (stereo partly drawn) [Example 19.20, (5′S,7a′R)-3-{[6-(1-methyl-1H-pyrazol-5-yl)pyrimidin-4-yl]oxy}-5′-(pyrazin-2-yl)tetrahydro-3′H-spiro[cyclobutane-1,2′-pyrrolo[2,1-b][1,3]oxazol]-3′-one], with 13 nM.
